From publication PMC5773580, “A synthetic combinatorial approach to disabling deviant Hedgehog signaling” (Scientific Reports, 2018)
Several values for one entry are separate records, joined by “and”; a condition that tells them apart may be missing. Identical values can stand only once.

Target: T1, HDAC10 (Homo sapiens, UniProt Q969S8)
T1 construct: purchased BPS Bioscience #50051-11
T1 sequence (Q969S8 1-669): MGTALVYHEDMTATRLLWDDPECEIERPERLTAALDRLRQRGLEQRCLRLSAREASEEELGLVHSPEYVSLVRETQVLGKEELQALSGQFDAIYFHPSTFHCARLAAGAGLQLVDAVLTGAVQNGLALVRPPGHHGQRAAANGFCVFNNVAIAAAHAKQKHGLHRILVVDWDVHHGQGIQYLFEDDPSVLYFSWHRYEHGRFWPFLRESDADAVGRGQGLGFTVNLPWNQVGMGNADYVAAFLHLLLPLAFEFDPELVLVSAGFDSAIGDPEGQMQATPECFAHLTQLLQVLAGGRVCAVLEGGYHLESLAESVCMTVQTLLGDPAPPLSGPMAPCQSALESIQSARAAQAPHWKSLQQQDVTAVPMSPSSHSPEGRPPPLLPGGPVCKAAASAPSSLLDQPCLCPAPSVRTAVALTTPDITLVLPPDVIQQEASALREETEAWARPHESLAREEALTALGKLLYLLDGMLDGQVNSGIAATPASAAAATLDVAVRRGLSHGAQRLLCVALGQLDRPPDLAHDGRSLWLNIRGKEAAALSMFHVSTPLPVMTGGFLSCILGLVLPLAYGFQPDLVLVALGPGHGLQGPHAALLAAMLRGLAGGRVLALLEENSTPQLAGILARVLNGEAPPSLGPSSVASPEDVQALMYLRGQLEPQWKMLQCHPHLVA
Test: In vitro HDAC profiling (deacetylation assay), HDAC10
Assay type: biochemical
Conditions: for HDAC Activity (Fluorescent counts): Repeat1/Repeat 2
Method: HDAC profiling was performed at BPS Bioscience (San Diego, CA). All of the compounds are dissolved in DMSO. A series of dilutions of the compounds were prepared with 10% DMSO in HDAC assay buffer (#50031) and 5 µl of the dilution was added to a 50 µl reaction so that the final concentration of DMSO is 1% in all of reactions. All of the enzymatic reactions were conducted in duplicate at 37 °C for 30 mins, except that the enzyme reactions for HDAC11 were at room temperature for 3 hrs. All of the reactions were performed in a 50 µl mixture containing HDAC assay buffer, 5 µg BSA, an HDAC substrate [HDAC Substrate 3 (BPS number 50037) or HDAC Class 2a Substrate 1 (BPS number 50040)], an HDAC enzyme (#50051-11) and a test compound. After enzymatic reactions, 50 μl of HDAC Developer (#50030) was added to each well and the plate was incubated at room temperature for an additional 20 mins. Fluorescence intensity was measured at an excitation of 360 nm and an emission of 460 nm using a Tecan Infinite M1000 microplate reader. HDAC activity assays were performed in duplicates at each concentration. The fluorescent intensity data were analyzed using the computer software, Graphpad Prism. In the absence of the compound, the fluorescent intensity (Ft) in each data set was defined as 100% activity. In the absence of HDAC, the fluorescent intensity (Fb) in each data set was defined as 0% activity. The percent activity in the presence of each compound was calculated according to the following equation: %activity = (F − Fb)/(Ft − Fb), where F = the fluorescent intensity in the presence of the compound. The values of % activity versus a series of compound concentrations were then plotted using non-linear regression analysis of Sigmoidal dose-response curve generated with the equation Y = B + (T − B)/1 + 10((LogIC50 − X) × Hill Slope), where Y = percent activity, B = minimum percent activity, T = maximum percent activity, X = logarithm of compound and Hill Slope = slope factor or Hill coefficient. The IC50 value was determined by the concentration causing a half-maximal percent activity.

SMILES: O=C(CCCCCCC(=O)Nc1ccc(Cl)c(C(=O)Nc2ccc(NC(=O)c3cc(Cl)ccc3Cl)cc2)c1)NO [IHR-SAHA]
- HDAC Activity (Fluorescent counts) (HDAC10, WW01 0 Log nM): 21183 Fluorescent counts and 21616 Fluorescent counts
- HDAC Activity (Fluorescent counts) (HDAC10, WW01 0.5 Log nM): 20859 Fluorescent counts and 21260 Fluorescent counts
- HDAC Activity (Fluorescent counts) (HDAC10, WW01 1 Log nM): 19414 Fluorescent counts and 20650 Fluorescent counts
- HDAC Activity (Fluorescent counts) (HDAC10, WW01 1.5 Log nM): 17046 Fluorescent counts and 19100 Fluorescent counts
- HDAC Activity (Fluorescent counts) (HDAC10, WW01 2 Log nM): 13500 Fluorescent counts and 13556 Fluorescent counts
- HDAC Activity (Fluorescent counts) (HDAC10, WW01 2.5 Log nM): 9393 Fluorescent counts and 9233 Fluorescent counts
- HDAC Activity (Fluorescent counts) (HDAC10, WW01 3 Log nM): 6324 Fluorescent counts and 6307 Fluorescent counts
- HDAC Activity (Fluorescent counts) (HDAC10, WW01 3.5 Log nM): 4593 Fluorescent counts and 4402 Fluorescent counts
- HDAC Activity (Fluorescent counts) (HDAC10, WW01 4 Log nM): 3949 Fluorescent counts and 4170 Fluorescent counts
- HDAC Activity (Fluorescent counts) (HDAC10, WW01 -0.5 Log nM): 22257 Fluorescent counts and 21526 Fluorescent counts
- IC50 (in vitro deacetylation assay, duplicates): 174 nM
